Experimental data: US10227347B2, “Purinyl-N-hydroxyl pyrimidine formamide derivative, preparation methods and uses thereof” (Guizhou Bailing Group Pharmaceutical CO., LTD., priority 2015, dated 2019)
pEC50, pIC50: −log10 of the molar value. Like-named read-outs stand apart in the source and are kept apart here.

Assays:
[1] = system: HBL-1 cells (B-cell lymphoma); assay: Proliferation inhibition, HBL-1 (cck-8); assay type: cell-based; details: Homo sapiens, HBL1; 96 h incubation
Source text: (§1) Calculating the value of IC50 as per the formula: Y=background data+(top data−background data)/(1+10^((Log IC50−X)*rate of curve)). Where, Y refers to the inhibition ratio (%) and X refers to the compound concentration.

[2] = system: MV4-11 cells (acute myeloid leukemia); assay: Cell proliferation inhibition, MV4-11 (cck-8); assay type: cell-based; details: Homo sapiens, 96 h incubation, read-out: Proliferation IC50, Acute myeloid leukemia MV4-11
Procedure, shortened: (§2)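 Cells seeded at 2000-3000/well; adherent lines dosed after attachment, then 96 h incubation with compound. Viability read by MTT for solid-tumour lines (HCT116, A2780s) and CCK-8 for MV4-11; IC50 from four-parameter logistic fit of inhibition ratio versus concentration.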

[3] = system: hct116 cells (colon cancer); assay: Cell proliferation inhibition, hct116 (MTT); assay type: cell-based; details: Homo sapiens, HCT-116; 96 h incubation; read-out: Proliferation IC50, Colon cancer hct116
Procedure, shortened: as §2

[4] = system: acetylated histone H3 (Ac-H3) in A2780s cells; assay: Induction of histone H3 acetylation in A2780s cells (cytoblot); assay type: cell-based; details: Homo sapiens, 6 h treatment
Method: (§3) Specific operation: After the treatment, washing each well once with 50-100 μl of cold TBS buffer [with the composition as 20 mM Tris (trismetyl aminomethane), pH7.5] and fixing it with 100 μL of 4% pre-cooled paraformaldehyde at 4° C. for 1 h; after paraformaldehyde is washed off, adding 50 μL of pre-cooled methyl alcohol in each well and evenly spreading at 4° C. for 5 min; after methyl alcohol is washed off, washing it once with the TBS buffer containing 3% skim milk powder and adding 50 μL of antibody fluid, oscillating it slightly at 4° C. and incubating overnight. For determination of Ac—H3, the antibody fluid is prepared by diluting Ac—H3 antibody and horseradish peroxide coupled secondary antibody to a same system with the TBS buffer containing 3% skim milk powder (Ac—H3 antibody is purchased from Santa Cruz Company and diluted at a ratio of 1:100; horseradish peroxide coupled secondary antibody is purchased from Jackson Company and diluted at a ratio of 1:2000); for determination of acetylated Ac-α-tubulin, the antibody fluid is prepared by diluting Ac-α-tubulin antibody and horseradish peroxide coupled secondary antibody to a same system with the TBS buffer containing 3% skim milk powder (Ac-α-tubulin antibody is purchased from Santa Cruz Company and diluted at a ratio of 1:100; horseradish peroxide coupled secondary antibody is purchased from Jackson Company and diluted at a ratio of 1:2000).
(§4) Calculating the value of IC50 as per the formula: Y=background data+(top data−background data)/(1+10^((Log EC50−X)*rate of curve)) Where, Y refers to the activating rate (%) and X refers to the compound concentration.

[5] = system: U266 cells (multiple myeloma); assay: Proliferation inhibition, U266 (cck-8); assay type: cell-based; details: Homo sapiens, U-266; 96 h incubation
Source text: as §1

[6] = system: Ramos cells (B-cell lymphoma); assay: Proliferation inhibition, Ramos (cck-8); assay type: cell-based; details: Homo sapiens, 96 h incubation
Source text: as §1

PI3Kα = target: T1, PI3Kα (Homo sapiens, UniProt P42336); assay: PI3Kα activity inhibition (Kinase-Glo); assay type: biochemical; details: read-out: PI3Kα IC50
T1 construct: purchased Invitrogen PV4788
T1 sequence (P42336 whole entry, species assumed): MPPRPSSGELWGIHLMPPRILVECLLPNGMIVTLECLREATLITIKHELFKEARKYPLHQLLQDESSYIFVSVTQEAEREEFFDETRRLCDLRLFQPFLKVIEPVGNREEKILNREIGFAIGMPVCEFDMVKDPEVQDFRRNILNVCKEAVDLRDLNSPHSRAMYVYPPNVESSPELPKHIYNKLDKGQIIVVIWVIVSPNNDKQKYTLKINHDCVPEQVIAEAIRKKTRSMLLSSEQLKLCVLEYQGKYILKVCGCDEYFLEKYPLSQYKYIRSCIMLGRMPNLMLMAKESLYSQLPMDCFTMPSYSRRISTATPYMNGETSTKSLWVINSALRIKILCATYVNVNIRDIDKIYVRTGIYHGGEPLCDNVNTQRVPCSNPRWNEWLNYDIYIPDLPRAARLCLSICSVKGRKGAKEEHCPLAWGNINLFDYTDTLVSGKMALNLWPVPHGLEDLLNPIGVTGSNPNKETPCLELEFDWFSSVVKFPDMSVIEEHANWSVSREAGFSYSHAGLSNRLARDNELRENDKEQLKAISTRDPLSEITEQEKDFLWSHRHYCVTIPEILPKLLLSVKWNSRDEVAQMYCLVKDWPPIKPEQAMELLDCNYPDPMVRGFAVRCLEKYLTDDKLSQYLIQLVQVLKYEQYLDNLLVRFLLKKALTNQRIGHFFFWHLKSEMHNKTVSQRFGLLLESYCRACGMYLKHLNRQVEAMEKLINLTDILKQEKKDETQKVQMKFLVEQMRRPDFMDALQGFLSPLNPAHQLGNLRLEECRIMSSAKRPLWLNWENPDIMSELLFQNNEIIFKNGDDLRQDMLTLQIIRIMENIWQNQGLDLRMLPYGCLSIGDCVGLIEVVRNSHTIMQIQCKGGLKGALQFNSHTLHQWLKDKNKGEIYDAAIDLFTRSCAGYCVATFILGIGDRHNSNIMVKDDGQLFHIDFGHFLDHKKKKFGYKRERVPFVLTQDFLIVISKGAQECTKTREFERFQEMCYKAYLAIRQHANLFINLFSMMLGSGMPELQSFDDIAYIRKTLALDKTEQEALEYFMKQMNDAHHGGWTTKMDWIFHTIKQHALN
T1 sequence (P27986 whole entry partner, species assumed): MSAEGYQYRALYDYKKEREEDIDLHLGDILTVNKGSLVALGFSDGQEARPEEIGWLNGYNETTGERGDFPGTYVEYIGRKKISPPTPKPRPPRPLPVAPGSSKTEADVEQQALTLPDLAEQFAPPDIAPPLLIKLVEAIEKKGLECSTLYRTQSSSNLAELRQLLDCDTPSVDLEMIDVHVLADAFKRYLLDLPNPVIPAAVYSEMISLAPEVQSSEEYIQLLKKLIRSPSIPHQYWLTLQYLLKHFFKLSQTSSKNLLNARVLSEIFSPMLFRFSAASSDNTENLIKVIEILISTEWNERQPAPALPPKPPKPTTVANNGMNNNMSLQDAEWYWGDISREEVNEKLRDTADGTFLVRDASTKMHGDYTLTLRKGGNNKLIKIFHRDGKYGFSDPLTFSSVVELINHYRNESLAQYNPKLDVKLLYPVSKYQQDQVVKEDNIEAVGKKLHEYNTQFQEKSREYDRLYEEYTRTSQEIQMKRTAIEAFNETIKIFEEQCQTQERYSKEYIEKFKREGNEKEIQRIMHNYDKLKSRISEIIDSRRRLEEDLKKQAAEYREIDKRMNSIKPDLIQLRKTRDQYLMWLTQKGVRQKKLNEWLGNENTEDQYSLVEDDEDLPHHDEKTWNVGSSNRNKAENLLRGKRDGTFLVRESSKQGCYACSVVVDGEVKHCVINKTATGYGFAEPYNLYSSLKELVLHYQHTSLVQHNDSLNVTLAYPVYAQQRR
Procedure, shortened: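 Kinase-Glo luminescence read-out of remaining ATP after PI3K reaction with PIP2 and ATP substrates in 50 mM HEPES pH 7.5, 3 mM MgCl2, 1 mM EGTA, 100 mM NaCl, 0.03% CHAPS, 2 mM DTT. Incubated at ambient temperature, 1 h for PI3Kα, 2 h for PI3Kδ. IC50 from four-parameter fit of % inhibition versus concentration.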

[7] = system: acetylated Ac-α-tubulin in A2780s cells; assay: Induction of α-tubulin acetylation in A2780s cells (cytoblot); assay type: cell-based; details: Homo sapiens, 6 h treatment, read-out: Ac-Tub EC50
Method: as §3, §4

[8] = system: A2780s cells (ovarian cancer); assay: Cell proliferation inhibition, A2780s (MTT); assay type: cell-based; details: Homo sapiens, 96 h incubation, read-out: Proliferation IC50, Ovarian cancer A2780s
Procedure, shortened: as §2

[9] = system: RPMI-8226 cells (multiple myeloma); assay: Proliferation inhibition, RPMI-8226 (cck-8); assay type: cell-based; details: Homo sapiens, 96 h incubation
Source text: as §1

PI3Kβ = target: T2, PI3Kβ (Homo sapiens, UniProt P42338); assay: PI3Kβ activity inhibition (ADP-Glo); assay type: biochemical; details: Table 4, graded
T2 construct: purchased Millipore 14-603-K
T2 sequence (P42338 whole entry, species assumed): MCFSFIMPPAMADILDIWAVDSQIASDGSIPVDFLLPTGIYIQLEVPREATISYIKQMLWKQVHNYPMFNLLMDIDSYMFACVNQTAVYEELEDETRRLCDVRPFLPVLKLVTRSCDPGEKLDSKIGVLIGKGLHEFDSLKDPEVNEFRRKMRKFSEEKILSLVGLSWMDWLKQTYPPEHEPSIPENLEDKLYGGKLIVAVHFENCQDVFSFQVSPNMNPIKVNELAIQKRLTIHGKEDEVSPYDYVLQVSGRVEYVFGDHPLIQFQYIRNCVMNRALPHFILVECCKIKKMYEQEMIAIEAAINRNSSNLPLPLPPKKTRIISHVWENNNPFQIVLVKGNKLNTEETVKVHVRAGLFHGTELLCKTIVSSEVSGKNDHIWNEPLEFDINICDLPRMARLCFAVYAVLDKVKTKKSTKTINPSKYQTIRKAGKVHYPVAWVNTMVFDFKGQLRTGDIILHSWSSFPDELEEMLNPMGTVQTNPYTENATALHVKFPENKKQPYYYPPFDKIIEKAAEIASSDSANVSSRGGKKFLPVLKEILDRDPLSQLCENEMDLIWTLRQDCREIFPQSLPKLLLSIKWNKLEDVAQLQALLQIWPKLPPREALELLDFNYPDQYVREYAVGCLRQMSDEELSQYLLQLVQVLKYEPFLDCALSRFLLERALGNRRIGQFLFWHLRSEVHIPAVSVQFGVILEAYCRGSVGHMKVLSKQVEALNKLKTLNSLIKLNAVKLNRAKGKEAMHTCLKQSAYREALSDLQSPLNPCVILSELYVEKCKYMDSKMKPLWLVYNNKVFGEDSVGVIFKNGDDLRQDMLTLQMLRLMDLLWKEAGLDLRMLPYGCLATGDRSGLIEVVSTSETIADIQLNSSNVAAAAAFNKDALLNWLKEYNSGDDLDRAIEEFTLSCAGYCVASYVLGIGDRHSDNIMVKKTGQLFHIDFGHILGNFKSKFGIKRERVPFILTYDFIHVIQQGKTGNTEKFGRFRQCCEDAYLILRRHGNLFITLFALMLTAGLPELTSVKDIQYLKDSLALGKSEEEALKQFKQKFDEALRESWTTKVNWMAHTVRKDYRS
T2 sequence (P27986 whole entry partner, species assumed): as the sequence (P27986 whole entry partner, species assumed) above
Method: (§5) Detecting the inhibition capability of the compound to PI3Kβ and PI3Kγ activities with ADP-Glo (purchased from Promege Company; Catalog No.: v9102/3). […] The reaction system also comprises substrates as PIP2 and ATP. The reaction buffer system comprises 50 mM HEPES, 3 mM MgCl2, 1 mM EGTA, 100 mM NaCl, 0.03% CHAPS and 2 mM DTT. The pH value of the reaction buffer is 7.5. […] Mixing the system evenly for incubation under ambient temperature for 1 h; getting a new 384 well plate and transferring 5 μL reaction liquid from the each well of original 384 well plate to the corresponding wells of the new 384 well plate; adding 5 μL ADP-Glo which has been preheated to ambient temperature into each new reaction well to terminate the reaction; oscillating it slowly in dark place for 40 min's incubation after it is mixed evenly; adding 10 μL testing liquid in each reaction well, oscillating it for 1 min to mix evenly and incubating it for 1 h, then measuring the fluorescence intensity with a microplate reader and analyzing the result data with the software GraphPad Prism.
(§6) Calculating the value of IC50 as per the formula: Y=background data+(top data−background data)/(1+10^((Log IC50−X)*rate of curve))
(§7) Where, Y refers to the inhibition ratio (%) and X refers to the compound concentration.

[10] = system: SUDHL-4 cells (B-cell lymphoma); assay: Proliferation inhibition, SUDHL-4 (cck-8); assay type: cell-based; details: Homo sapiens, SU-DHL-4; 96 h incubation
Source text: as §1

PI3Kδ = target: T3, PI3Kδ (Homo sapiens, UniProt O00329); assay: PI3Kδ activity inhibition (Kinase-Glo); assay type: biochemical; details: Table 4, graded
T3 construct: purchased Millipore 14-604-K
T3 sequence (O00329 whole entry): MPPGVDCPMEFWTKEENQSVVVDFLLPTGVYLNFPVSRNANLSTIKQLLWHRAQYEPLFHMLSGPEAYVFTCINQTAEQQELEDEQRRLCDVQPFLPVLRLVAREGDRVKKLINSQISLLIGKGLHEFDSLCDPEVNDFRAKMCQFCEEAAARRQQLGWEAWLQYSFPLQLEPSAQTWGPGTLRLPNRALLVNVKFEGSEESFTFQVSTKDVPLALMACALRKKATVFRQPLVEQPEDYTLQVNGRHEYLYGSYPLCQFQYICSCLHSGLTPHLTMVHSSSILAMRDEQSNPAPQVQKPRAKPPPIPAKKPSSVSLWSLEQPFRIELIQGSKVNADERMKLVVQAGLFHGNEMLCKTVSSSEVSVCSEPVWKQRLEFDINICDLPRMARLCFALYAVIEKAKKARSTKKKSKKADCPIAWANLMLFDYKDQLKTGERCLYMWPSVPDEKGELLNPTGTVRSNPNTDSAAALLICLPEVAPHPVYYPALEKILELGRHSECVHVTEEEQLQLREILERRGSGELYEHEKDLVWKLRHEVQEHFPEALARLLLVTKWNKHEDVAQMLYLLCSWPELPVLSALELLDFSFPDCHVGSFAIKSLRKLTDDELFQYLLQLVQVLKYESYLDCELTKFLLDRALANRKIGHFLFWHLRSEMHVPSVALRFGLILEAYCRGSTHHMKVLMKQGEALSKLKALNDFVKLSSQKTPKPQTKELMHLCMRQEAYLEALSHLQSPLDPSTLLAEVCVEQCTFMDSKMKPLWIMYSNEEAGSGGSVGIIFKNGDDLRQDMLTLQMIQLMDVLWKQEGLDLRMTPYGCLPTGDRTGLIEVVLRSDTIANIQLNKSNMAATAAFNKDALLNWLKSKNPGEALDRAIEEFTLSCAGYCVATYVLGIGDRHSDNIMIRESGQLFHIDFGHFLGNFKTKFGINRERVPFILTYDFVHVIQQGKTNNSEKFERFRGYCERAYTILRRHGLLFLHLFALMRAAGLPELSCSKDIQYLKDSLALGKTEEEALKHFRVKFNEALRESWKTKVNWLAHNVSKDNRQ
T3 sequence (P27986 whole entry partner): as the sequence (P27986 whole entry partner, species assumed) above
Method: Detecting the inhibition capability of the compound to PI3Kα and PI3Kδ activities with Kinase-Glo (purchased from Promege Company; Catalog No.: V3771). […] The reaction system also comprises substrates as PIP2 (4, 5-diphosphoinositide, purchased from Life Technologies Company) and ATP (triphosadenine, purchased from Sigma Company). The reaction buffer system comprises 50 mM HEPES (4-hydroxyethylpiperazine ethane sulfonic acid), 3 mM MgCl2, 1 mM EGTA (ethylene glycol bis(2-amino ethylether)quadrol), 100 mM NaCl, 0.03% CHAPS (3-[3-(cholamidopropyl)dimethylamino]-1-propanesulfonic acid), 2 mM DTT (dithiothreitol). The pH value of the reaction buffer is 7.5. […] Mixing the system evenly for incubation under ambient temperature (for 1 h in PI3Kα test and for 2 h in PI3Kδ test). After incubation, adding 10 μL Kinase-Glo which has been preheated to ambient temperature into each reaction well to terminate the reaction; shaking it in dark place for 15 min after it is mixed evenly, then measuring the fluorescence intensity with a microplate reader and analyzing the result data with the software GraphPad Prism.
as §6, §7

PI3Kγ [11] = target: T4, PI3Kγ (Homo sapiens, UniProt P48736); assay: PI3Kγ activity inhibition (ADP-Glo); assay type: biochemical; details: Table 4, graded
T4 construct: purchased Invitrogen PR8641C
T4 sequence (P48736 whole entry): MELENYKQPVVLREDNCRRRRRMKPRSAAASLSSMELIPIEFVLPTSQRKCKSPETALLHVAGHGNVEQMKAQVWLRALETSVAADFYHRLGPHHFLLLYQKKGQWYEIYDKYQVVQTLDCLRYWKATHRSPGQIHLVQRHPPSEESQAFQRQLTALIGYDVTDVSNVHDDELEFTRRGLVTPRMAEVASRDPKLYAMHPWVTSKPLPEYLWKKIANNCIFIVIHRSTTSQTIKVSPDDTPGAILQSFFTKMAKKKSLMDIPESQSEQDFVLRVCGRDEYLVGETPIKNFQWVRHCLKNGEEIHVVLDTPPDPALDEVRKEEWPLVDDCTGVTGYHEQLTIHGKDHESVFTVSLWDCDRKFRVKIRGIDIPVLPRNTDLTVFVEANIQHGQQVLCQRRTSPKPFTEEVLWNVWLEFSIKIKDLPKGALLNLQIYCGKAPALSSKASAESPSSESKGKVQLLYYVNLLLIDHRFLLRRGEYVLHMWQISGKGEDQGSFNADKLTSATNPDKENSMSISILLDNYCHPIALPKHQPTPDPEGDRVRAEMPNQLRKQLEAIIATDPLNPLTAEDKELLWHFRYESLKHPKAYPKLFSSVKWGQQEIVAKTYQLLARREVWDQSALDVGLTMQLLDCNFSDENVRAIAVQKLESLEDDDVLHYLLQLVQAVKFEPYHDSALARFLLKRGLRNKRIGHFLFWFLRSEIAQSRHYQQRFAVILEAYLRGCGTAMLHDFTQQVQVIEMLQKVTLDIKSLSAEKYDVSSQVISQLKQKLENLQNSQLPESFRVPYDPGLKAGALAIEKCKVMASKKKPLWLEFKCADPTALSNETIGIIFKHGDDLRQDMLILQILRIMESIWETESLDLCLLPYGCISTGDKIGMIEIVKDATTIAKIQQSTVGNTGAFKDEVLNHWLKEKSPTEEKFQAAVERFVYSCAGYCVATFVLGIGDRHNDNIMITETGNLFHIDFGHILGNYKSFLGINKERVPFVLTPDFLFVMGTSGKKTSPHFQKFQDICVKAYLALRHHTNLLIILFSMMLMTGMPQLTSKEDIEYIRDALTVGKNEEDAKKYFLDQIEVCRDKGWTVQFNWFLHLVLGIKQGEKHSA
Method: as §5, §6, §7

[12] = system: OCI-LY1 cells (B-cell lymphoma); assay: Proliferation inhibition, OCI-LY1 (cck-8); assay type: cell-based; details: Homo sapiens, 96 h incubation
Source text: as §1

[13] = system: MM1S cells (multiple myeloma); assay: Proliferation inhibition, MM1S (cck-8); assay type: cell-based; details: Homo sapiens, MM1.S; 96 h incubation
Source text: as §1

[14] = system: MV4-11 subcutaneous tumor; details: 10 mg/kg i.v., once per two days, 22 days
Source text: During drug administration, measuring the weight and gross tumor volume of the mice per 2 days and keeping a record. The calculation formula is as V=π/6×A^2×B, where, where, V=gross tumor volume (mm^3), A=tumor width (mm) and B=tumor length (mm). Observing and keeping a record for the survival condition of the tested animals. After drug discontinuance, killing the mice through cervical dislocation and peeling off their tumors as per the operation specification of animal experiment. Evaluating the inhibition capability of the compounds to tumor activities by calculating the tumor inhibitory rate with the formula as: tumor inhibitory rate=(1−tumor weight of treatment group/tumor weight of control group)×100%. Analyzing and comparing the difference between each treatment group and control group with the method of t-test. The grading of significance level of difference is: ***, P<0.001; **, P<0.01; *, P<0.05; no statistical significance (ns), P>0.05.

PI3Kγ [15] = details: read-out: inhibition value to activity of PI3Kγ; literature [1]; cited from earlier work

| Structure (SMILES) | pIC50 [1] | pIC50 [2] | pIC50 [3] | pEC50 [4] | pIC50 [5] | pIC50 [6] | pIC50 (PI3Kα; Table 1, graded) | pIC50 (PI3Kα; Table 4, graded) | pEC50 [7] | pIC50 [8] | pIC50 [9] | pIC50 (PI3Kβ) | pIC50 [10] | pIC50 (PI3Kδ) | pIC50 (PI3Kγ [11]) | pIC50 [12] | pIC50 [13] | Final survival condition (survived individuals/total individuals) [14] | pIC50 (PI3Kγ [15]) |
| --- | --- | --- | --- | --- | --- | --- | --- | --- | --- | --- | --- | --- | --- | --- | --- | --- | --- | --- | --- |
| CN(Cc1nc2c(N3CCOCC3)nc(-c3ccncc3)nc2n1C)c1ncc(C(=O)NO)cn1 [CLJ-8, 2-(((2-(4-pyridyl)-9-methyl-6-morpholine-9H-purine-8-yl))methyl(methyl)amino)-N-hydroxyl pyrimidine-5-formamide] | 8.00 to 9.00 | 8.00 to 10.00 | 7.00 to 8.00 | 6.70 to 7.00 | 8.00 to 9.00 | 9.00 to 10.00 | 5.00 to 6.00 | 5.00 to 6.00 | 6.70 to 7.00 | 8.00 to 10.00 | 8.00 to 9.00 | < 5.00 | 8.00 to 9.00 | < 5.00 | < 5.00 | 8.00 to 9.00 | 9.00 to 10.00 | 5/6 | – |
| COc1ccc(-c2nc(N3CCOCC3)c3sc(CN(C)c4ncc(C(=O)NO)cn4)cc3n2)cn1 [CUDC-907] | – | – | – | – | – | – | – | – | – | – | – | – | – | – | – | – | – | – | 7.41 |
